Source: US20090269796A1, “METHODS OF DETECTING AND TREATING MYOCARDIAL ISCHEMIA AND MYOCARDIAL INFARCTION” (THE GENERAL HOSPITAL CORPORATION, priority 2007, published 2009)

System: Neonatal rat cardiomyocytes
Experiment: Hypoxia-induced apoptosis (annexin V) of cardiomyocytes pretreated with individual metabolites
Assay type: cell-based
Conditions: metabolite added 5 minutes before 3 hours hypoxia; lowest concentration screened; annexin V-positive cells; FIG. 6
Experimental: Neonatal rat cardiomyocytes were treated with individual metabolites previously identified using planned MI metabolomics. In the first, metabolites that are increased in the peripheral blood and/or the coronary sinus samples were prioritized. Neonatal cardiomyocytes were isolated from 1-day old rats, cultured for three days, and then challenged in a hypoxia chamber (<0.5% O2, 95% nitrogen and 5% CO2 at 37° C.) for 3 hours, as previously described.^18 Baseline apoptosis is typically ˜10%, which increases to ˜30% following hypoxic challenge, as assessed by FITC-conjugated annexin V staining. Metabolites at the indicated concentrations were added to experimental plates 5 minutes prior to the onset of hypoxia. Metabolites were examined at ˜2 fold reported blood concentrations (where available), as well as at one log increased concentration (see also Human Metabolomics Database, HMDB, at http://www.hmdb.ca). 30 minutes after reoxygenation, the number of annexin V-positive cells per five HPF was counted from n=3 culture plates. The data depicted represent the percent change in apoptosis relative to the hypoxia control for the lowest concentration of each metabolite screened. (*P<0.05 by unpaired student's t test). […] Accordingly, one would seek to inhibit the metabolite in question as part of treatment or prevention scheme.
Accordingly, one would seek to administer the metabolite in question as part of treatment or prevention scheme. Such metabolites include, according to FIG. 6, G3P, inosine, malonic acid, TMNO, and orotic acid. Alternatively, one could administer a compound that upregulates a pathway that results in the production of the metabolite in question.

Compound | Mean % change in apoptosis vs. hypoxia control
NCCS(=O)(=O)O [Taurine] | potentiates cell death
O=C(O)c1cc(=O)[nH]c(=O)[nH]1 [Orotic Acid] | reduces cell death
O=P(O)(O)OCC(O)CO (stereo not drawn) [Glycerol-3-P, glycerol-3-phosphate] | reduces cell death
O=C(O)CCC(=O)O [Succinic Acid] | potentiates cell death
C[N+](C)(C)[O-] [Trimethylamine-N-Oxide] | reduces cell death
O=C(O)CC(=O)O [Malonic Acid] | reduces cell death
OC[C@H]1O[C@@H](n2cnc3c(O)ncnc32)[C@H](O)[C@@H]1O [Inosine] | reduces cell death
O=c1[nH]cnc2nc[nH]c12 [Hypoxanthine] | potentiates cell death

System: not listed separately
Experiment: Simultaneous coronary sinus and peripheral plasma sampling after planned MI (13-patient subgroup), LC-MS/MS profiling
Assay type: in vivo, human
Conditions: elevated earlier in coronary sinus, FIG. 4 top panel
Experimental: Blood was drawn at baseline (just prior to the onset of the ablation) and at minutes, 1 hour, 2 hours, 4 hours and 24 hours following the onset of injury as depicted in FIG. 1. 13 of the 36 patients consented to the placement of a coronary sinus catheter during the ablation, allowing for the simultaneous sampling from coronary sinus and femoral catheters at the baseline, 10-minute and 1-hour time points. The coronary sinus catheter was subsequently removed prior to the patient leaving the catheterization suite.
Samples were obtained from femoral venous catheters during the procedure or, where indicated, from a catheter placed in the coronary sinus. Samples were collected in K2EDTA-treated tubes (Becton Dickinson). All blood samples were centrifuged at 2000×g for 10 minutes to pellet cellular elements. The supernatant plasma was then aliquoted and immediately frozen at −80° C. to minimize freeze-thaw degradation. Additional blood samples were sent to the clinical chemistry laboratory for evaluation of the standard cardiac markers creatine kinase (CK), CK-MB, and Troponin T (Roche Diagnostics).
The specificity of the findings described above was further examined by exploring the anatomic origin of the metabolic changes. […]

Compound | Time after injury until elevation evident in the periphery
O=C(O)CC(O)C(=O)O (stereo not drawn) [Malic Acid] | 120 min
O=P(O)(O)OCC(O)CO (stereo not drawn) [Glycerol-3-P, glycerol-3-phosphate] | 120 min

System: not listed separately
Experiment: Metabolite changes in peripheral plasma after planned MI (alcohol septal ablation), LC-MS/MS profiling
Assay type: in vivo, human
Conditions: FIG. 3, lower panel
Text: A total of 36 patients undergoing planned MI using alcohol septal ablation for the treatment of symptomatic hypertrophic obstructive cardiomyopathy (HOCM) were included. Inclusion criteria for the cohort were: 1) primary HOCM; 2) septal thickness of 16 mm or greater; 3) resting outflow tract gradient of greater than 30 mmHg, or an inducible outflow tract gradient of at least 50 mm Hg; 4) symptoms refractory to optimal medical therapy; and 5) appropriate coronary anatomy. The most proximal accessible septal branch was instrumented using standard angioplasty guiding catheters and guidewires and 1.5 or 2.0 mm×9 mm Maverick™ balloon catheters. Radiographic and echocardiographic contrast injections confirmed proper selection of the septal branch and balloon catheter position. Ethanol was infused through the balloon catheter at 1 ml per minute. Additional injections in the same or other septal branches were administered as needed, causing cessation of blood flow to the isolated myocardium, and to reduce the gradient to <20 mmHg.^16 […]
The three HPLC columns were connected in parallel via an automated switching valve on a robotic sample loader (Leap Technologies) to a triple quadrupole mass spectrometer (AB4000Q, Applied Biosystem/Sciex), operated in electrospray ionization mode using a turbo ion spray LC/MS interface. […] A total of 210 known metabolites were monitored for each sample. […]

Compound | Kinetic pattern of change in peripheral plasma after planned MI
CN(CC(=O)O)C(=N)N [creatine] | Later-appearing
Nc1ccccc1C(=O)O [anthanilic acid] | Later-appearing
